Reference: patent US9181307B2, “Influenza A 2009 pandemic H1N1 polypeptide fragments comprising endonuclease activity and their use” (priority 2010, dated 2015)

tested on: endonucleolytically active site of the Influenza A 2009 pandemic H1N1 PA subunit polypeptide fragment or variant thereof; experiment: Co-crystallisation / X-ray structure: binding to the endonucleolytically active site; parameters: species or system Influenza A 2009 pandemic H1N1 virus

SMILES | ability to bind to the endonucleolytically active site
O=C(O[C@@H]1Cc2c(O)cc(O)cc2O[C@@H]1c1cc(O)c(O)c(O)c1)c1cc(O)c(O)c(O)c1 [EGCG, [(2R,3R)-5,7-dihydroxy-2-(3,4,5-trihydroxyphenyl)chroman-3-yl]3,4,5-trihydroxybenzoate] | able to bind to the endonucleolytically active site
O=C(O)/C(O)=C/C(=O)C1(Cc2ccc(Cl)cc2)CCN(CC2CCCCC2)CC1 [EMBL-R05-2, 4-[4-[(4-chlorophenyl)methyl]-1-(cyclohexylmethyl)-4-piperidinyl]-2-hydroxy-4-oxo-2-butenoic acid] | able to bind to the endonucleolytically active site
O=C(O)/C(O)=C/C(=O)C1(Cc2ccc(Cl)cc2)CCCN(Cc2ccccc2)C1 (stereo not drawn) [EMBL-R05-3, 4-[3-[(4-chlorophenyl)methyl]-1-(phenylmethyl)-3-piperidinyl]-2-hydroxy-4-oxo-2-butenoic acid] | able to bind to the endonucleolytically active site
